Patent publication US12139520B2 (priority 2020, dated 2024)
Numbered stars: 1 amine (or outer) side, 2 acyl side, 3 side chain; on linkers, the order of the positions; unused ones are H or OH. Bridge positions count the residues as written; N and C are the ends. Square brackets hold non-standard residues; d marks the D form. Side chains are listed from the residue outwards. Peptide text beside a SMILES is read from it. * marks the point of attachment. C20 diacid = O=C(O)CCCCCCCCCCCCCCCCCCC(=O)*; γGlu = O=C(O)[C@H](CCC(=O)[*:2])N[*:1]; Hyp = O=C(O)[C@@H]1C[C@@H](O)CN1; NMeI = CC[C@H](C)[C@H](NC)C(=O)O; Aad = N[C@@H](CCCC(=O)O)C(=O)O; AEEA = NCCOCCOCC(=O)O; Sar = CNCC(=O)O

Columns and labels:
hAMY3 receptor = target: T1, hAMY3 receptor (Homo sapiens, UniProt O60896+P30988); assay: cAMP assay for in vitro receptor activation, hAMY3-R; type: cell-based; conditions: cAMP assay, hAMY3 receptor; read-out: hAMY3R EC50
T1 sequence (P30988 25-474): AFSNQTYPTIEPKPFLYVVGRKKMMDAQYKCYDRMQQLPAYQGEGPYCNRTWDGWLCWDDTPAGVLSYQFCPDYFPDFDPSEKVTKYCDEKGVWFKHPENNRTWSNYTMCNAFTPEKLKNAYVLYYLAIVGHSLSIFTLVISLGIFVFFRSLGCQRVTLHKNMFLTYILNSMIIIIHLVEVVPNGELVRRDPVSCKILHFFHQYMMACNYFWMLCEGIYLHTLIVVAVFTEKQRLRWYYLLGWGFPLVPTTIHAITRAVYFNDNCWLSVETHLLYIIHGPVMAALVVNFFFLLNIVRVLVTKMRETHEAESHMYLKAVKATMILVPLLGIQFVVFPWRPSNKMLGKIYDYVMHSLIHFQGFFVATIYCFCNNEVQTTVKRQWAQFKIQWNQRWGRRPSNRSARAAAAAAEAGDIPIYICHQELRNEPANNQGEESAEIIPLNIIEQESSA
T1 sequence (O60896 24-148 partner): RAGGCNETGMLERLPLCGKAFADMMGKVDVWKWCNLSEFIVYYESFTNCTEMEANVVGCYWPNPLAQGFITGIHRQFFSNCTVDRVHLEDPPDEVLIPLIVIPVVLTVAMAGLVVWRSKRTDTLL
Method in brief: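 Read-out is TR-FRET cAMP signal, recorded one hour after reagent addition, following 30 min room-temperature stimulation of stable hAMY3 cells with graded compound doses in casein/IBMX (0.5 mM) buffer.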

hAM1 receptor = hAM1 receptor (Homo sapiens, UniProt O60895+Q16602); assay: cAMP assay for in vitro receptor activation, hAM1-R; type: cell-based; conditions: cAMP assay, hAM1 receptor; read-out: hAM1R EC50
Chain of hAM1 receptor (Q16602 23-461): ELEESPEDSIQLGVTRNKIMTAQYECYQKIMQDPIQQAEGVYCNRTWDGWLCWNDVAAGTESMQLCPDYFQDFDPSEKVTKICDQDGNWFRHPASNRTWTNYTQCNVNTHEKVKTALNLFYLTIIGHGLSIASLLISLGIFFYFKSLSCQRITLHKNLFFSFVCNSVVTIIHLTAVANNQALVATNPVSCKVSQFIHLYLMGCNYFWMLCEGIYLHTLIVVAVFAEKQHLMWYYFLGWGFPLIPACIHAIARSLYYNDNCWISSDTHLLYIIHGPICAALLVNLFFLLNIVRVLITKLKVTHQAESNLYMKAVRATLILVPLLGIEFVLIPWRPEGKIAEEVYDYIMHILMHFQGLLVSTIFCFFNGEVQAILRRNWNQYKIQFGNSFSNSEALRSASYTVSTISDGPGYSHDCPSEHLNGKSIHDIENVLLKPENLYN
Chain of hAM1 receptor (O60895 43-175 partner): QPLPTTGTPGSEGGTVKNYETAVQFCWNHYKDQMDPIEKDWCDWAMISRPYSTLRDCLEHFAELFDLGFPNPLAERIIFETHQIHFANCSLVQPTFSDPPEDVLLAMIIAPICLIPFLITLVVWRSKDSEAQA
Method in brief: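 Stable hAM1 cells (monoclonal) plated 8000/well; buffer DPBS, 0.05% casein, 0.5 mM IBMX; cAMP read-out.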

SMILES	EC50 (hAMY3 receptor)	EC50 (hAM1 receptor)
CC[C@H](C)[C@H](NC(=O)[C@H](C)NC(=O)CNC(=O)[C@H](Cc1ccccc1)NC(=O)[C@H](CC(N)=O)NC(=O)[C@H](CC(N)=O)NC(=O)[C@H](CO)NC(=O)[C@H](CO)NC(=O)[C@H](Cc1c[nH]cn1)NC(=O)[C@@H](NC(=O)[C@H](CC(C)C)NC(=O)[C@H](Cc1ccccc1)NC(=O)[C@H](CC(N)=O)NC(=O)[C@H](C)NC(=O)[C@H](CC(C)C)NC(=O)[C@H](CCCNC(=N)N)NC(=O)[C@H](CCC(N)=O)NC(=O)[C@@H](NC(=O)[C@H](C)NC(=O)[C@@H]1CSSC[C@H](NC(=O)[C@@H](N)CCCCN)C(=O)N[C@@H](CC(N)=O)C(=O)N[C@@H]([C@@H](C)O)C(=O)N[C@@H](C)C(=O)N[C@@H]([C@@H](C)O)C(=O)N1)[C@@H](C)O)C(C)C)C(=O)N[C@@H](CC(C)C)C(=O)N1CCC[C@H]1C(=O)N[C@@H](CO)C(=O)N[C@H](C(=O)N[C@@H](CCCCN)C(=O)N[C@H](C(=O)NCC(=O)N1CCC[C@H]1C(=O)N[C@@H](CC(N)=O)C(=O)NCC(=O)N[C@@H](Cc1ccc(O)cc1)C(N)=O)C(C)C)[C@@H](C)O [compound 149] (H-KCNTATCATQRLANFLVHSSNNFGAILPSTKVGPNGY-NH2; disulfide 2-7; N-terminus assumed)	0.04 nM	> 5000 nM
CC[C@H](C)[C@H](NC(=O)[C@H](CCC(N)=O)NC(=O)[C@H](Cc1c[nH]cn1)NC(=O)[C@H](C)NC(=O)[C@H](CC(C)C)NC(=O)[C@H](CCCNC(=N)N)NC(=O)[C@H](CCC(N)=O)NC(=O)[C@@H](NC(=O)[C@@H](NC(=O)[C@@H]1CSSC[C@H](NC(=O)CN)C(=O)N[C@@H](CCCNC(=N)N)C(=O)N[C@@H](Cc2ccccc2)C(=O)NCC(=O)N[C@@H]([C@@H](C)O)C(=O)N1)[C@@H](C)O)C(C)C)C(=O)N[C@@H](Cc1ccc(O)cc1)C(=O)N[C@@H](CCC(N)=O)C(=O)N[C@@H](Cc1ccccc1)C(=O)N[C@H](C(=O)N[C@@H](CC(=O)O)C(=O)N[C@@H](CCCCN)C(=O)N[C@@H](CC(=O)O)C(=O)N[C@@H](CCCCN)C(=O)N[C@@H](CC(=O)O)C(=O)N[C@@H](CC(N)=O)C(=O)N[C@H](C(=O)N[C@@H](C)C(=O)N1CCC[C@H]1C(=O)N[C@@H](CCCNC(=N)N)C(=O)N[C@H](C(=O)N[C@@H](CCCCN)C(=O)N[C@H](C(=O)N[C@@H](CO)C(=O)N1CCC[C@H]1C(=O)N[C@@H](CCC(N)=O)C(=O)NCC(=O)N[C@@H](Cc1ccc(O)cc1)C(N)=O)C(C)C)[C@@H](C)O)C(C)C)[C@@H](C)O [compound 155] (H-GCRFGTCTVQRLAHQIYQFTDKDKDNVAPRTKVSPQGY-NH2; disulfide 2-7; N-terminus assumed)	0.045 nM	116 nM
CC[C@H](C)[C@@H](C(=O)N[C@@H](CC(C)C)C(=O)N[C@@H](CO)C(=O)N[C@@H](CO)C(=O)N[C@H](C(=O)N[C@@H](CCC(=O)O)C(=O)N[C@H](C(=O)NCC(=O)N[C@@H](CO)C(=O)N[C@@H](CC(N)=O)C(=O)N[C@H](C(=O)N1C[C@H](O)C[C@H]1C(N)=O)[C@@H](C)O)C(C)C)[C@@H](C)O)N(C)C(=O)[C@H](C)NC(=O)CN(C)C(=O)[C@H](Cc1ccccc1)NC(=O)[C@H](CO)NC(=O)[C@H](CO)NC(=O)[C@H](CCCNC(=N)N)NC(=O)[C@H](CCC(N)=O)NC(=O)[C@H](CC(C)C)NC(=O)[C@H](Cc1ccccc1)NC(=O)[C@H](CCCC(=O)O)NC(=O)[C@H](C)NC(=O)[C@H](CC(C)C)NC(=O)[C@H](CCCNC(=N)N)NC(=O)[C@H](CCC(=O)O)NC(=O)[C@@H](NC(=O)[C@H](C)NC(=O)[C@@H]1CSSC[C@H](NC(=O)[C@H](CCCNC(=N)N)NC(=O)CC[C@H](NC(=O)CCCCCCCCCCCCCCCCCCC(=O)O)C(=O)O)C(=O)NCC(=O)N[C@@H]([C@@H](C)O)C(=O)N[C@@H](C)C(=O)N[C@@H]([C@@H](C)O)C(=O)N1)[C@@H](C)O [compound 76] ({C20 diacid-γGlu}-RCGTATCATERLA[Aad]FLQRSSF[Sar]A[NMeI]LSSTEVGSNT[Hyp]-NH2; disulfide 2-7)	0.014 nM	> 5000 nM
CC[C@H](C)[C@H](NC(=O)[C@H](CCC(N)=O)NC(=O)[C@H](CCC(=O)O)NC(=O)[C@H](C)NC(=O)[C@H](CC(C)C)NC(=O)[C@H](CCCNC(=N)N)NC(=O)[C@H](CCC(N)=O)NC(=O)[C@@H](NC(=O)[C@@H](NC(=O)[C@@H]1CSSC[C@H](NC(=O)[C@H](CCCCN)NC(=O)CC[C@H](NC(=O)CCCCCCCCCCCCCCCCCCC(=O)O)C(=O)O)C(=O)N[C@@H](CC(N)=O)C(=O)N[C@@H]([C@@H](C)O)C(=O)N[C@@H](C)C(=O)N[C@@H]([C@@H](C)O)C(=O)N1)[C@@H](C)O)C(C)C)C(=O)N[C@@H](Cc1ccc(O)cc1)C(=O)N[C@@H](CCC(N)=O)C(=O)N[C@@H](Cc1ccccc1)C(=O)N[C@H](C(=O)N[C@@H](CC(=O)O)C(=O)N[C@@H](CCCCN)C(=O)N[C@@H](CC(=O)O)C(=O)N[C@@H](CCCCN)C(=O)N[C@@H](CC(=O)O)C(=O)N[C@@H](CC(N)=O)C(=O)N[C@H](C(=O)N[C@@H](C)C(=O)N1CCC[C@H]1C(=O)N1CCC[C@H]1C(=O)N[C@H](C(=O)N[C@@H](CCC(N)=O)C(=O)N[C@H](C(=O)NCC(=O)N[C@@H](CO)C(=O)N[C@@H](CC(N)=O)C(=O)NCC(=O)N1C[C@H](O)C[C@H]1C(N)=O)C(C)C)[C@@H](C)O)C(C)C)[C@@H](C)O [compound 73] ({C20 diacid-γGlu}-KCNTATCTVQRLAEQIYQFTDKDKDNVAPPTQVGSNG[Hyp]-NH2; disulfide 2-7)	0.013 nM	> 5000 nM

Molecules with a lower EC50 (hAMY3 receptor), results first:

EC50 (hAMY3 receptor)	EC50 (hAM1 receptor)	SMILES
0.007 nM	> 5000 nM	CC[C@H](C)[C@H](NC(=O)[C@H](CCC(N)=O)NC(=O)[C@H](CCC(=O)O)NC(=O)[C@H](C)NC(=O)[C@H](CC(C)C)NC(=O)[C@H](CCCNC(=N)N)NC(=O)[C@H](CCC(N)=O)NC(=O)[C@@H](NC(=O)[C@@H](NC(=O)[C@@H]1CSSC[C@H](NC(=O)[C@@H](N)CCCCN)C(=O)N[C@@H](CC(N)=O)C(=O)N[C@@H]([C@@H](C)O)C(=O)N[C@@H](C)C(=O)N[C@@H]([C@@H](C)O)C(=O)N1)[C@@H](C)O)C(C)C)C(=O)N[C@@H](Cc1ccc(O)cc1)C(=O)N[C@@H](CCC(N)=O)C(=O)N[C@@H](Cc1ccccc1)C(=O)N[C@H](C(=O)N[C@@H](CC(=O)O)C(=O)N[C@@H](CCCCN)C(=O)N[C@@H](CC(=O)O)C(=O)N[C@@H](CCCCN)C(=O)N[C@@H](CC(=O)O)C(=O)N[C@@H](CC(N)=O)C(=O)N[C@@H](CCCCNC(=O)COCCOCCNC(=O)COCCOCCNC(=O)CC[C@H](NC(=O)CCCCCCCCCCCCCCCCCCC(=O)O)C(=O)O)C(=O)N[C@@H](C)C(=O)N1CCC[C@H]1C(=O)N1CCC[C@H]1C(=O)N[C@H](C(=O)N[C@@H](CC(N)=O)C(=O)N[C@H](C(=O)NCC(=O)N[C@@H](CO)C(=O)N[C@@H](CC(N)=O)C(=O)NCC(=O)N1C[C@H](O)C[C@H]1C(N)=O)C(C)C)[C@@H](C)O)[C@@H](C)O [compound 12] (H-KCNTATCTVQRLAEQIYQFTDKDKDNK([AEEA-AEEA-γGlu-C20 diacid])APPTNVGSNG[Hyp]-NH2; disulfide 2-7; N-terminus assumed)
0.012 nM	> 5000 nM	CC[C@H](C)[C@H](NC(=O)[C@H](C)NC(=O)CNC(=O)[C@H](Cc1ccccc1)NC(=O)[C@H](CC(N)=O)NC(=O)[C@H](CC(N)=O)NC(=O)[C@H](CO)NC(=O)[C@H](CO)NC(=O)[C@H](Cc1c[nH]cn1)NC(=O)[C@@H](NC(=O)[C@H](CC(C)C)NC(=O)[C@H](Cc1ccccc1)NC(=O)[C@H](CC(N)=O)NC(=O)[C@H](C)NC(=O)[C@H](CC(C)C)NC(=O)[C@H](CCCNC(=N)N)NC(=O)[C@H](CCC(N)=O)NC(=O)[C@@H](NC(=O)[C@H](C)NC(=O)[C@@H]1CSSC[C@H](NC(=O)[C@@H](N)CCCCN)C(=O)N[C@@H](CC(N)=O)C(=O)N[C@@H]([C@@H](C)O)C(=O)N[C@@H](C)C(=O)N[C@@H]([C@@H](C)O)C(=O)N1)[C@@H](C)O)C(C)C)C(=O)N[C@@H](CC(C)C)C(=O)N[C@@H](CO)C(=O)N[C@@H](CO)C(=O)N[C@H](C(=O)N[C@@H](CCCCN)C(=O)N[C@H](C(=O)NCC(=O)N[C@@H](CO)C(=O)N[C@@H](CC(N)=O)C(=O)N[C@H](C(=O)N[C@@H](Cc1ccc(O)cc1)C(N)=O)[C@@H](C)O)C(C)C)[C@@H](C)O [compound 58]
